Experimental data reported in ChEMBL document CHEMBL1201862, “PubChem BioAssay data set” (2004).
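Each compound was tested at five concentrations against cells in 96-well plates for 48 hours. Abbreviation: GI50, concentration required for 50% inhibition of growth.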 Activity calls are given as the source filed them. No stated cut-off is given here; in the data, active = GI50 up to about 1.1 µM and inactive = higher.

Legend:
Assay in all cases: DTP human tumour cell line panel, 48 h
[1] = test system: ACHN
[2] = test system: CCRF-CEM
[3] = test system: DU-145
[4] = test system: HOP-62
[5] = test system: HOP-92
[6] = test system: K562
[7] = test system: Malme-3M
[8] = test system: NCI-H522
[9] = test system: OVCAR-4
[10] = test system: RXF 393
[11] = test system: SF-539
[12] = test system: SK-MEL-28
[13] = test system: SK-MEL-5
[14] = test system: SN12C
[15] = test system: SNB-75
[16] = test system: SR
[17] = test system: UO-31
[18] = test system: LOX IMVI
[19] = test system: MDA-MB-231

Measured: GI50

O=C1c2ccccc2-c2nc3ccc(O)cc3n21
inactive: [1] > 100 µM | [2] > 100 µM | [3] > 100 µM | [4] > 100 µM | [5] > 100 µM | [6] > 100 µM | [7] > 100 µM | [8] > 100 µM | [9] > 100 µM | [10] > 100 µM | [11] > 100 µM | [12] > 100 µM | [13] > 100 µM | [14] > 100 µM | [15] 34.1 µM | [16] > 100 µM | [17] > 100 µM

O=[N+]([O-])c1ccc(C2CC(c3ccc(NCc4nc5ccccc5[nH]4)cc3)=NO2)cc1 (stereo not drawn)
inactive: [1] 33.3 µM | [2] 15.6 µM | [4] > 100 µM | [5] > 100 µM | [6] 21.1 µM | [18] 35.5 µM | [7] 34.4 µM | [8] 27.9 µM | [9] 14.3 µM | [10] > 100 µM | [11] > 100 µM | [12] > 100 µM | [13] 9.04 µM | [14] 30.7 µM | [15] > 100 µM | [16] 4.93 µM | [17] > 100 µM

COC(=O)C1=C(CCC[C@H](C)O[Si](C)(C)C(C)(C)C)NC(=O)N2[C@@H](CCO)CC[C@H]12
inactive: [1] 16.2 µM | [3] 19.1 µM | [4] 14.1 µM | [5] 14.2 µM | [6] 6.92 µM | [18] 16.9 µM | [19] 16.2 µM | [7] 12.5 µM | [8] 5.71 µM | [9] 16.5 µM | [10] 12.4 µM | [11] 16.7 µM | [12] 18.5 µM | [13] 7.82 µM | [14] 15 µM | [15] 15.7 µM | [17] 15.6 µM

CC(C)/C=C1\CCC(CN2CCOCC2)C1=O (stereo not drawn)
inactive: [1] 18 µM | [2] 2.65 µM | [4] > 100 µM | [5] 18.4 µM | [6] 2.56 µM | [18] 24.4 µM | [7] 15.7 µM | [8] 2.01 µM | [9] 20.8 µM | [10] 4.94 µM | [11] 15.5 µM | [12] 17.7 µM | [13] 18.6 µM | [14] 19.3 µM | [16] 3.75 µM | [17] 20.7 µM

NC1N=Nc2ccccc21 (stereo not drawn)
inactive: [1] > 100 µM | [2] > 100 µM | [4] > 100 µM | [5] > 100 µM | [6] > 100 µM | [18] > 100 µM | [7] > 100 µM | [8] > 100 µM | [9] > 100 µM | [10] > 100 µM | [11] > 100 µM | [12] > 100 µM | [14] > 100 µM | [15] > 100 µM | [16] > 100 µM | [17] > 100 µM

O=S1(=O)OCCCOS(=O)(=O)C1Br
inactive: [1] > 100 µM | [3] > 100 µM | [4] > 100 µM | [18] > 100 µM | [7] > 100 µM | [8] > 100 µM | [9] > 100 µM | [10] > 100 µM | [11] > 100 µM | [12] > 100 µM | [13] > 100 µM | [14] > 100 µM | [15] > 100 µM | [16] > 100 µM | [17] > 100 µM

O=S(=O)(c1ccccc1)C1CN2OC1(S(=O)(=O)c1ccccc1)CC2c1ccc(Br)cc1 (stereo not drawn)
inactive: [1] 45.4 µM | [2] > 100 µM | [4] 34.3 µM | [5] 66.2 µM | [6] > 100 µM | [18] 92 µM | [7] > 100 µM | [8] 34 µM | [9] 15.4 µM | [10] 13.2 µM | [11] 17.7 µM | [12] > 100 µM | [13] 90.6 µM | [14] > 100 µM | [15] 5.21 µM | [17] 37.9 µM

COc1ccc2c(c1OC)C(=O)C2
inactive: [1] > 100 µM | [2] > 100 µM | [4] > 100 µM | [6] > 10 µM | [18] > 100 µM | [7] > 100 µM | [8] > 100 µM | [9] > 100 µM | [10] > 100 µM | [12] > 100 µM | [13] > 100 µM | [14] > 100 µM | [15] > 100 µM | [16] > 100 µM | [17] > 100 µM

N#CCCN(c1ccc(/C=N/c2ccccc2)cc1)S(=O)(=O)c1ccccc1
inactive: [2] > 100 µM | [4] 23.7 µM | [5] > 100 µM | [6] 2.97 µM | [7] 41.4 µM | [8] > 100 µM | [9] > 100 µM | [11] > 100 µM | [12] > 100 µM | [13] > 100 µM | [14] > 100 µM | [15] > 100 µM | [16] > 100 µM | [17] 17 µM

CC(=O)N/N=C1\CC(C)(C)C2CCC1C2 (stereo not drawn)
inactive: [1] > 100 µM | [2] > 100 µM | [4] > 100 µM | [5] > 100 µM | [6] > 100 µM | [18] > 100 µM | [7] > 100 µM | [8] > 100 µM | [9] > 100 µM | [10] > 100 µM | [11] > 100 µM | [12] > 100 µM | [13] > 100 µM | [14] > 100 µM | [15] > 100 µM | [17] > 100 µM

CCOC(=O)/N=C(\N)SCc1ccccc1
inactive: [1] > 100 µM | [2] 24.7 µM | [4] > 100 µM | [5] > 100 µM | [6] > 100 µM | [18] 43.9 µM | [7] > 100 µM | [8] > 100 µM | [9] > 100 µM | [10] > 100 µM | [11] > 100 µM | [12] > 100 µM | [13] > 100 µM | [14] > 100 µM | [15] > 100 µM | [16] 31.6 µM | [17] > 100 µM

O=C1C(Cl)C(c2ccc(O)cc2)N1n1cnc2ccccc2c1=O (stereo not drawn)
inactive: [1] 16 µM | [2] 26.3 µM | [4] > 100 µM | [5] 38.2 µM | [6] 31.3 µM | [18] 21 µM | [7] 37.2 µM | [8] 16.6 µM | [9] 25.5 µM | [10] 19 µM | [11] 31.9 µM | [12] 26.7 µM | [13] 52.8 µM | [14] 35.2 µM | [15] 49 µM | [16] 18.8 µM | [17] 55.1 µM

CC(=O)OC1COC(N2C(=O)C(=O)c3c(C)cc(Cl)nc32)C(OC(C)=O)C1OC(C)=O (stereo not drawn)
inactive: [1] > 100 µM | [2] > 100 µM | [4] > 100 µM | [5] > 100 µM | [6] > 100 µM | [18] > 100 µM | [7] > 100 µM | [9] > 100 µM | [10] > 100 µM | [11] > 100 µM | [12] > 100 µM | [13] > 100 µM | [14] > 100 µM | [15] > 100 µM | [16] 83.6 µM | [17] > 100 µM

CCCCCCCCCCCOC(=S)NC(C)C
inactive: [1] 19.3 µM | [2] 23.5 µM | [4] 20.1 µM | [5] 14.1 µM | [6] 21.2 µM | [18] 16.7 µM | [7] 21.8 µM | [8] 18.2 µM | [9] 24.8 µM | [10] 19.8 µM | [11] 18.3 µM | [12] 20.7 µM | [13] 17 µM | [14] 16.1 µM | [15] 23.1 µM | [16] 20.5 µM | [17] 15.8 µM

Cc1nn(-c2nc3ccccc3s2)c2c1C(=O)c1ccccc1-2
inactive: [1] > 100 µM | [4] > 100 µM | [5] 89.3 µM | [6] > 100 µM | [18] > 100 µM | [7] > 100 µM | [8] > 100 µM | [9] 26.9 µM | [10] 62.5 µM | [11] > 100 µM | [12] > 100 µM | [13] > 100 µM | [14] > 100 µM | [15] > 100 µM | [16] > 100 µM | [17] > 100 µM

C[Si](C)(C)c1ccc(CC2(Cc3ccc([Si](C)(C)C)cc3)CCNC2)cc1
inactive: [1] 3.18 µM | [2] 4.67 µM | [4] 2.94 µM | [5] 1.74 µM | [6] 3.62 µM | [18] 1.8 µM | [7] 3.95 µM | [8] 1.78 µM | [9] 2.1 µM | [10] 1.71 µM | [11] 3.34 µM | [12] 2.33 µM | [13] 1.9 µM | [14] 1.71 µM | [15] 3.24 µM | [17] 2.48 µM

COc1ccc(/C=C/c2cc(OC)c(O[Si](C)(C)C(C)(C)C)c(OC)c2)cc1
inactive: [1] > 100 µM | [2] 58.7 µM | [4] > 100 µM | [5] 29.9 µM | [6] 41.9 µM | [7] 24.2 µM | [8] > 100 µM | [9] 49.9 µM | [11] > 100 µM | [12] 6.24 µM | [13] 54.1 µM | [14] > 100 µM | [15] 84.7 µM | [16] > 10 µM | [17] > 100 µM
